For data set [1] the following is noted: 101.33 kPa, Liquid, Vibrating tube method.
Data set [2] in a line: activity coefficient (dimensionless); of the first substance listed, at infinite dilution; xn = mol fraction of the nth substance listed. The note with it: 101 kPa, Liquid, Chromatography, x1 = 0.

SMILES strings stand for the structures. ± gives the expanded uncertainty stated by the source.

For the compound `CCCC[N+]1(C)CCCC1.O=S(=O)([N-]S(=O)(=O)C(F)(F)F)C(F)(F)F`, the mass density in data set [1] (293.15 K) was determined as 1397.4 ± 0.6 kg/m3; in data set [1] (303.15 K) it was 1389.2 ± 0.6 kg/m3; in data set [1] (313.15 K) it was 1381.1 ± 0.6 kg/m3; in data set [1] (323.15 K), 1372.7 ± 0.6 kg/m3; in data set [1] (333.15 K), 1364.1 ± 0.6 kg/m3.
For `CCCCO` [butan-1-ol] + CCC[N+]1(C)CCCC1.O=S(=O)([N-]S(=O)(=O)C(F)(F)F)C(F)(F)F, the activity coefficient turned out to be 2.79 ± 0.19 in data set [2] (323.15 K), 2.35 ± 0.16 in data set [2] (333.15 K) and 2.27 ± 0.15 in data set [2] (343.15 K).
As to `c1ccncc1` [pyridine] + CCCC[N+]1(C)CCCC1.O=S(=O)([N-]S(=O)(=O)C(F)(F)F)C(F)(F)F, the activity coefficient in data set [2] (323.15 K), in data set [2] (333.15 K) and in data set [2] (343.15 K) was 0.59 ± 0.04 each time.
For `CCC(=O)CC` [pentan-3-one] + CCC[N+]1(C)CCCC1.O=S(=O)([N-]S(=O)(=O)C(F)(F)F)C(F)(F)F, the values for the activity coefficient in data set [2] (323.15 K), in data set [2] (333.15 K) and in data set [2] (343.15 K) were 0.84 ± 0.05, 0.82 ± 0.05 and 0.86 ± 0.06, respectively.
On the same counts, the results for `C1CCCCCC1` [cycloheptane] + CCCC[N+]1(C)CCCC1.O=S(=O)([N-]S(=O)(=O)C(F)(F)F)C(F)(F)F are 23.9 ± 1.6, 32 ± 2.2 and 41.7 ± 2.9.
On the same counts, the results for `CCCCCCCCC` [nonane] + CCCC[N+]1(C)CCCC1.O=S(=O)([N-]S(=O)(=O)C(F)(F)F)C(F)(F)F are 42.7 ± 2.9, 38.3 ± 2.6 and 34.7 ± 2.4.
For `CC(C)O` [propan-2-ol] + CCC[N+]1(C)CCCC1.O=S(=O)([N-]S(=O)(=O)C(F)(F)F)C(F)(F)F the same measures were 1.92 ± 0.13, 1.79 ± 0.12 and 1.62 ± 0.11.
Take `ClC(Cl)Cl` [trichloromethane] + CCCC[N+]1(C)CCCC1.O=S(=O)([N-]S(=O)(=O)C(F)(F)F)C(F)(F)F: the activity coefficient in data set [2] (323.15 K) stood at 0.83 ± 0.05; in data set [2] (333.15 K) it was 0.86 ± 0.06; in data set [2] (343.15 K), 0.88 ± 0.06.
For `CCO` [ethanol] + CCC[N+]1(C)CCCC1.O=S(=O)([N-]S(=O)(=O)C(F)(F)F)C(F)(F)F the same measures were 1.75 ± 0.12, 1.57 ± 0.1 and 1.49 ± 0.1.
For `C1CCCCC1` [cyclohexane] + CCC[N+]1(C)CCCC1.O=S(=O)([N-]S(=O)(=O)C(F)(F)F)C(F)(F)F the same measures were 10.2 ± 0.7, 9.53 ± 0.65 and 8.53 ± 0.58.
For `CCC[N+]1(C)CCCC1.O=S(=O)([N-]S(=O)(=O)C(F)(F)F)C(F)(F)F`, the mass density in data set [1] (293.15 K) was 1430.1 ± 0.6 kg/m3; in data set [1] (303.15 K), 1421.8 ± 0.6 kg/m3; in data set [1] (313.15 K) it was 1412.8 ± 0.6 kg/m3; in data set [1] (323.15 K) it was 1403.8 ± 0.6 kg/m3; in data set [1] (333.15 K) it was 1394.4 ± 0.6 kg/m3.
Take `CCCO` [propan-1-ol] + CCC[N+]1(C)CCCC1.O=S(=O)([N-]S(=O)(=O)C(F)(F)F)C(F)(F)F: the activity coefficient in data set [2] (323.15 K) came to 2.17 ± 0.15; in data set [2] (333.15 K), 1.95 ± 0.13; in data set [2] (343.15 K), 1.79 ± 0.12.
As for `CC(C)CC(C)(C)C` [2,2,4-trimethylpentane] + CCC[N+]1(C)CCCC1.O=S(=O)([N-]S(=O)(=O)C(F)(F)F)C(F)(F)F, the activity coefficient was 22.5 ± 1.5 in data set [2] (323.15 K), 22 ± 1.5 in data set [2] (333.15 K) and 21.6 ± 1.5 in data set [2] (343.15 K).
On the same counts, the results for `CC(C)OC(C)C` [diisopropyl ether] + CCC[N+]1(C)CCCC1.O=S(=O)([N-]S(=O)(=O)C(F)(F)F)C(F)(F)F are 5.88 ± 0.4, 5.75 ± 0.39 and 5.53 ± 0.38.
On the same counts, the results for `ClC(Cl)(Cl)Cl` [tetrachloromethane] + CCCC[N+]1(C)CCCC1.O=S(=O)([N-]S(=O)(=O)C(F)(F)F)C(F)(F)F are 2.44 ± 0.17, 2.45 ± 0.17 and 2.47 ± 0.17.
On the same counts, the results for `CCC(C)=O` [butanone] + CCCC[N+]1(C)CCCC1.O=S(=O)([N-]S(=O)(=O)C(F)(F)F)C(F)(F)F are 0.54 ± 0.04, 0.5 ± 0.04 and 0.46 ± 0.04.

A word on the mass density: it is the mass of a sample divided by its volume.

(Values after the NIST ThermoML archive (doi:10.1021/je4001894).)
